# Laboratory results reported in patent US8921368B2, “Pyrrolopyridazine JAK3 inhibitors and their use for the treatment of inflammatory and autoimmune diseases” (Bristol-Myers Squibb Company, priority 2011, dated 2014).
# Legend:
# JAK1 = JAK1 (Homo sapiens (Human), UniProt P23458); assay: JAK1 Kinase Assay Protocol; format: biochemical; details: GST-JAK1; ATP 100 μM; Caliper LabChip; read-out: LLE_JAK1 (IC50)
# Description: JAK1 Kinase Assay Protocol
# The assay reactions were performed in U-bottom 384-well plates. The final assay volume was 30 μl prepared from 15 μl additions of enzyme and substrates (fluoresceinated peptide and ATP) and test compounds in assay buffer (20 mM HEPES pH 7.4, 10 mM MgCl2, 25 mM beta-glycerol phosphate, 0.015% Brij35 and 4 mM DTT). The reaction was initiated by the combination of GST-JAK1 enzyme with substrates and test compounds. The reactions were incubated at room temperature for 3 hours and terminated by adding 60 μl of 35 mM EDTA to each sample. […] The final concentration of reagents in the assays was: ATP, 100 μM; fluoresceinated peptide, 1.5 μM; GST-JAK1, 12.5 nM; and DMSO, 1.6%. […] Compounds were dissolved at 10 mM in dimethylsulfoxide (DMSO) and evaluated at eleven concentrations. IC50 values were derived by non-linear regression analysis.
# JAK3 = JAK3 (Homo sapiens (Human), UniProt P52333); assay: JAK3 Kinase Assay (Caliper / Filter protocols); format: biochemical; details: JAK3 kinase inhibition; ATP 8 μM; read-out: LLE_JAK3_FB (IC50)
# Description: JAK3 Kinase Assay Protocol (Caliper)
# The assay reactions were performed in U-bottom 384-well plates. […] The reaction was initiated by the combination of GST-JAK3 enzyme with substrates and test compounds. The reactions were incubated at room temperature for 3 hours and terminated by adding 60 μl of 35 mM EDTA to each sample. […] Compounds were dissolved at 10 mM in dimethylsulfoxide (DMSO) and evaluated at eleven concentrations. IC50 values were derived by non-linear regression analysis.
# JAK3 Kinase Assay Protocol (Filter)
# Kinase reactions consisted of 5 ng of JAK3 enzyme, 30 uM CSKtide substrate, 0.2 μCi ^33P γ-ATP, 8 μM ATP in 30 μl kinase buffer (50 mM Hepes, pH 8.0, 10 mM MgCl2, 1 mM EGTA, 2 mM DTT). Reactions were incubated for 30 minutes at room temperature and stopped by the addition of cold trichloroacetic acid (TCA) to a final concentration of 15%. TCA precipitates were collected onto 384 well phosphocellulose filters (Millipore) using a Platemate to transfer the reaction mixture, washed on an EMBLA plate washer and the filters were quantitated using a TopCount 384-well liquid scintillation counter. […] Compounds were dissolved at 10 mM in dimethylsulfoxide (DMSO) and evaluated at six concentrations, each in triplicate. The final concentration of DMSO in the assay equaled 2%. IC50 values were derived by non-linear regression analysis.
# Sequence of JAK3 (P52333 whole entry): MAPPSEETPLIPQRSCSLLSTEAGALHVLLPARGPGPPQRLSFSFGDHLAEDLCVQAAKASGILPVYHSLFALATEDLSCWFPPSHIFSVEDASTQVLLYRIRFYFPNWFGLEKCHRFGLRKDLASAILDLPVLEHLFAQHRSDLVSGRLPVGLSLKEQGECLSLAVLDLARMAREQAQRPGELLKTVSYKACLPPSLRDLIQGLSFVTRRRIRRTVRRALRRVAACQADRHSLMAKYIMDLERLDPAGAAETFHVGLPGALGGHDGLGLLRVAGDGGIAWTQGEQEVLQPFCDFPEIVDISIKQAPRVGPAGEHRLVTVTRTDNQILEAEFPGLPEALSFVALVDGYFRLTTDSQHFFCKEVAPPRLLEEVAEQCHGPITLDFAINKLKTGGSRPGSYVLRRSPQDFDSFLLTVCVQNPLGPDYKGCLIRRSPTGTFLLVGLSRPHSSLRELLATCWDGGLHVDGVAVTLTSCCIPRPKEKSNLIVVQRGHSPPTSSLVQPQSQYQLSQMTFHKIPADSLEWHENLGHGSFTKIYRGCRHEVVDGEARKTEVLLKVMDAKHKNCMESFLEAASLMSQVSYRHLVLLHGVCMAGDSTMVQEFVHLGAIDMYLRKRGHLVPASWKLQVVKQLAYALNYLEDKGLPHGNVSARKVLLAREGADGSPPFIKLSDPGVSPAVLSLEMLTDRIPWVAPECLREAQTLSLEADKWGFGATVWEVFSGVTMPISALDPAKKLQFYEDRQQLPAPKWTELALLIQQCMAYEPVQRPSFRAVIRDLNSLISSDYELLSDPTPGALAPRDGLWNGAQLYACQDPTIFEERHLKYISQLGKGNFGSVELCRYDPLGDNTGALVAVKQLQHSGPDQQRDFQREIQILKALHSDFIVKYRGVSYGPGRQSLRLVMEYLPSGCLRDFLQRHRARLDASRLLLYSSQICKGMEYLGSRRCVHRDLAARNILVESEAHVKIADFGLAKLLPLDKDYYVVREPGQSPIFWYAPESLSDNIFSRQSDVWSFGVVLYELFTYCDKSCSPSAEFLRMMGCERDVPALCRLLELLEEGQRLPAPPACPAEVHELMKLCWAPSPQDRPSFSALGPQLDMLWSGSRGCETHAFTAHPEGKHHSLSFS
# Sequence of JAK1 (P23458 whole entry): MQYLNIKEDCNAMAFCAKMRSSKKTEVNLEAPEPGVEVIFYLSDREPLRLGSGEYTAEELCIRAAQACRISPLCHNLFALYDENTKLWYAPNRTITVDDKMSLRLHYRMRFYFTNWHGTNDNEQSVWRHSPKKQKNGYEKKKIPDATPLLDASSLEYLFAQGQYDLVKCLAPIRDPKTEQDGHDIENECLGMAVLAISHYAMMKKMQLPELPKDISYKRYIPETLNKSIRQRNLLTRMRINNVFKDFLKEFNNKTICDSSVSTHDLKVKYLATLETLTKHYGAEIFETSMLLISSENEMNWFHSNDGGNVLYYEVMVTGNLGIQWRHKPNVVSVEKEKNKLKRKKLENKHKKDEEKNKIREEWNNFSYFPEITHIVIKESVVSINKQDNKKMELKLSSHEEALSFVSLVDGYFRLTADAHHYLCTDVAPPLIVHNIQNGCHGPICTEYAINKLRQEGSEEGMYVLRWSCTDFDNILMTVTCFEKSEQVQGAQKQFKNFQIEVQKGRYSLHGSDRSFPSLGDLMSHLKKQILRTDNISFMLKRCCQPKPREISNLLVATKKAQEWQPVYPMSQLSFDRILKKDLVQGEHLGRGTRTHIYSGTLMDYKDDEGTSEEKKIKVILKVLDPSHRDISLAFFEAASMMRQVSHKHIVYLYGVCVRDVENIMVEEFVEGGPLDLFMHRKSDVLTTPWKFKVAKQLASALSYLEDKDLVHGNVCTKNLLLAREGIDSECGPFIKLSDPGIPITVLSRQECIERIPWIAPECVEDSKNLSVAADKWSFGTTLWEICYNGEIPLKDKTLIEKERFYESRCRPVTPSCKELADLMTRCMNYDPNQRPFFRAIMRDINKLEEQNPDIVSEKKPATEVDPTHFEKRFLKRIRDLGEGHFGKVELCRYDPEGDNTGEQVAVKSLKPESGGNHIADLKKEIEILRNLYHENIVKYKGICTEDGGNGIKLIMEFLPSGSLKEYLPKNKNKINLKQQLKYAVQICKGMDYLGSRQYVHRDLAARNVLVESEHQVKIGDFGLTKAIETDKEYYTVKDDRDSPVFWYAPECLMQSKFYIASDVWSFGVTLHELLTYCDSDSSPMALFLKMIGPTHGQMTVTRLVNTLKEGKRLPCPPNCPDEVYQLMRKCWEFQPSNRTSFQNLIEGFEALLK
Compound,IC50 (JAK1) [nM],IC50 (JAK3) [nM]
"C[C@]1(O)CC[C@@H](Nc2c(C(N)=O)cnn3cc(-c4cncnc4N)cc23)CC1 [Example 316, 6-(4-amino-5-pyrimidinyl)-4-((cis-4-hydroxy-4-methylcyclohexyl)amino)pyrrolo[1,2-b]pyridazine-3-carboxamide]",37.3,11
"C[C@]1(O)CC[C@@H](Nc2c(C(N)=O)cnn3cc(-c4ccc(C#N)cc4)cc23)CC1 [Example 167, 6-(4-cyanophenyl)-4-((cis-4-hydroxy-4-methylcyclohexyl)amino)pyrrolo[1,2-b]pyridazine-3-carboxamide]",6.1,1.6
CC(C)c1ccccc1-c1cc2c(N[C@@H]3CCC[C@]3(C)F)c(C(N)=O)cnn2c1 (racemic) [Example 60],253,136
C[C@]1(F)CCC[C@H]1Nc1c(C(N)=O)cnn2cc(N3CCOC3=O)cc12 [Example 317],13.6,6.8
CC1(C#N)CCCC1Nc1c(C(N)=O)cnn2cc(-c3ccccc3)cc12 (stereo not shown) [Example 123],1,0.2
C[C@]1(F)CCC[C@H]1Nc1c(C(N)=O)cnn2cc(N3CCOCC3=O)cc12 (racemic) [Example 318],13.4,7.1
C[C@]1(F)CCC[C@H]1Nc1c(C(N)=O)cnn2cc(-c3cccc(C(N)=O)c3)cc12 (racemic) [Example 94],1.4,0.5
"C[C@]1(O)CC[C@@H](Nc2c(C(N)=O)cnn3cc(-c4cncnc4)cc23)CC1 [Example 168, 4-((cis-4-hydroxy-4-methylcyclohexyl)amino)-6-(5-pyrimidinyl)pyrrolo [1,2-b]pyridazine-3-carboxamide]",105,17.1

# Now from value to compound:
IC50 (JAK1) [nM],IC50 (JAK3) [nM],Compound
4.1,5.5,"COc1cncc(-c2cc3c(N[C@@H]4CC[C@](C)(N)C4(C)C)c(C(N)=O)cnn3c2)c1 [Example 286, 4-(((1R,3S)-3-amino-2,2,3-trimethylcyclopentyl)amino)-6-(5-methoxy-3-pyridinyl)pyrrolo[1,2-b]pyridazine-3-carboxamide]"
10.9,5.6,Cn1nccc1-c1cc2c(N[C@@H]3C[C@@H](O)[C@@H](O)C3(C)C)c(C(N)=O)cnn2c1 (racemic) [Example 142]
5.4,13.8,"CC1(C)[C@H](Nc2c(C(N)=O)cnn3cc(-c4cccc5ncccc45)cc23)CC[C@]1(C)N [Example 272, 4-(((1R,3S)-3-amino-2,2,3-trimethylcyclopentyl)amino)-6-(5-quinolinyl)pyrrolo[1,2-b]pyridazine-3-carboxamide]"
0.7,1.6,"CC1(C)[C@H](Nc2c(C(N)=O)cnn3cc(-c4ccc(C(=O)NC5CC5)cc4)cc23)CC[C@]1(C)N [Example 221, 4-(((1R,3S)-3-amino-2,2,3-trimethylcyclopentyl)amino)-6-(4-(cyclopropylcarbamoyl)phenyl)pyrrolo[1,2-b] pyridazine-3-carboxamide]"
0.1,0.2,"CC1(C)[C@H](Nc2c(C(N)=O)cnn3cc(-c4ccccc4)cc23)CC[C@@]1(C)O [Example 293, 4-(((1R,3R)-3-hydroxy-2,2,3-trimethylcyclopentyl)amino)-6-phenylpyrrolo[1,2-b]pyridazine-3-carboxamide]"
20.2,1.7,CC1(C)[C@H](Nc2c(C(N)=O)cnn3cc(N4CCCC4=O)cc23)CC[C@]1(C)N [Example 328]
75.7,8.8,CC1(C)[C@H](Nc2c(C(N)=O)cnn3cc(N4CCC4=O)cc23)CC[C@]1(C)N [Example 332]
0.6,0.8,"CN(C)C(=O)c1ccc(-c2cc3c(N[C@@H]4CC[C@](C)(N)C4(C)C)c(C(N)=O)cnn3c2)cc1 [Example 266, 4-(((1R,3S)-3-amino-2,2,3-trimethylcyclopentyl)amino)-6-(4-(dimethylcarbamoyl)phenyl)pyrrolo[1,2-b]pyridazine-3-carboxamide]"
1.3,6.1,"Cc1ccncc1-c1cc2c(N[C@@H]3CC[C@](C)(N)C3(C)C)c(C(N)=O)cnn2c1 [Example 195, 4-(((1R,3S)-3-amino-2,2,3-trimethylcyclopentyl)amino)-6-(4-methyl-3-pyridinyl)pyrrolo[1,2-b] pyridazine-3-carboxamide]"
30,36.9,"CC(=O)Nc1ccccc1-c1cc2c(N[C@@H]3CC[C@](C)(N)C3(C)C)c(C(N)=O)cnn2c1 [Example 257, 6-(2-acetamidophenyl)-4-(((1R,3S)-3-amino-2,2,3-trimethylcyclopentyl)amino)pyrrolo[1,2-b]pyridazine-3-carboxamide]"
4.3,1.7,"COc1ccc(-c2cc3c(N[C@@H]4CC[C@](C)(NS(C)(=O)=O)C4(C)C)c(C(N)=O)cnn3c2)cn1 [Example 336, 6-(6-methoxy-3-pyridinyl)-4-(((1R,3S)-2,2,3-trimethyl-3-((methylsulfonyl)amino)cyclopentyl)amino)pyrrolo[1,2-b]pyridazine-3-carboxamide]"
46.4,25.2,Cn1nccc1-c1cc2c(N[C@@H]3CC[C@](C)(O)C3(C)C)c(C(N)=O)cnn2c1 (racemic) [Example 148]
